Tested on: severe or critical COVID-19 infection
Assay: Randomized, double-blind, placebo-controlled study of tradipitant in hospitalized patients with COVID-19 pneumonia (interim analysis, ITT)
Type: in vivo
Conditions: ITT; for Hazard ratio (95% CI), responder as improvement of 2 or more points: tradipitant vs placebo, Cox model, >1 benefit for tradipitant
[1] = Day 7, ordinal score at baseline 2, tradipitant N = 4
[2] = Day 7, ordinal score at baseline 3, tradipitant N = 13
[3] = Day 7, ordinal score at baseline 4, tradipitant N = 9
[4] = Day 7, overall, tradipitant N = 28
[5] = Day 28, ordinal score at baseline 2, tradipitant N = 4
[6] = Day 28, ordinal score at baseline 3, tradipitant N = 13
[7] = Day 28, ordinal score at baseline 4, tradipitant N = 9
[8] = Day 28, overall, tradipitant N = 28
[9] = ordinal score at baseline 2, tradipitant N = 4
[10] = ordinal score at baseline 3, tradipitant N = 13

O=C(c1ccccc1Cl)c1cccnc1-c1nnn(Cc2cc(C(F)(F)F)cc(C(F)(F)F)c2)c1-c1ccncc1 [Tradipitant]
Median time to responder [1]: 4 days | Mortality, KM estimate [1]: 25.0% | No. of responders (improvement of 2 or more points on 7 point ordinal scale) [1]: 3 | Mortality, KM estimate [2]: 0.0% | No. of responders (improvement of 2 or more points on 7 point ordinal scale) [2]: 2 | Median time to responder [3]: 4 days | Mortality, KM estimate [3]: 25.0% | No. of responders (improvement of 2 or more points on 7 point ordinal scale) [3]: 6 | Mortality, KM estimate [4]: 9.8% | No. of responders (improvement of 2 or more points on 7 point ordinal scale) [4]: 13 | Hazard ratio (95% CI), responder as improvement of 2 or more points (Day 7, overall): 2.55 | Median time to responder [5]: 4 days | Mortality, KM estimate [5]: 50.0% | No. of responders (improvement of 2 or more points on 7 point ordinal scale) [5]: 3 | Median time to responder [6]: 27 days | Mortality, KM estimate [6]: 9.1% | No. of responders (improvement of 2 or more points on 7 point ordinal scale) [6]: 4 | Median time to responder [7]: 4 days | Mortality, KM estimate [7]: 25.0% | No. of responders (improvement of 2 or more points on 7 point ordinal scale) [7]: 7 | Median time to responder [8]: 10 days | Mortality, KM estimate [8]: 20.4% | No. of responders (improvement of 2 or more points on 7 point ordinal scale) [8]: 16 | Hazard ratio (95% CI), responder as improvement of 2 or more points (Day 28, overall): 1.55 | No. of deaths by day 7 [9]: 1 | No. of deaths by day 28 [9]: 2 | Ordinal Score at Day 7 = 1 (Death), % of patients [9]: (25.0) % | Ordinal Score at Day 7 = 1 (Death), no. of patients [9]: 1 | Ordinal Score at Day 7 = 2 (Hospitalized, on invasive mechanical ventilation or ECMO), % of patients [9]: (25.0) % | Ordinal Score at Day 7 = 2 (Hospitalized, on invasive mechanical ventilation or ECMO), no. of patients [9]: 1 | Ordinal Score at Day 7 = 3 (Hospitalized, on non-invasive ventilation or high flow oxygen devices), % of patients [9]: (0.0) % | Ordinal Score at Day 7 = 3 (Hospitalized, on non-invasive ventilation or high flow oxygen devices), no. of patients [9]: 0 | Ordinal Score at Day 7 = 4 (Hospitalized, requiring supplemental oxygen), % of patients [9]: (25.0) % | Ordinal Score at Day 7 = 4 (Hospitalized, requiring supplemental oxygen), no. of patients [9]: 1 | Ordinal Score at Day 7 = 5 (Hospitalized, not requiring supplemental oxygen), % of patients [9]: (25.0) % | Ordinal Score at Day 7 = 5 (Hospitalized, not requiring supplemental oxygen), no. of patients [9]: 1 | Ordinal Score at Day 7 = 7 (Not hospitalized), % of patients [9]: (0.0) % | Ordinal Score at Day 7 = 7 (Not hospitalized), no. of patients [9]: 0 | Ordinal Score at Day 28 = 1 (Death), % of patients [9]: (50.0) % | Ordinal Score at Day 28 = 1 (Death), no. of patients [9]: 2 | Ordinal Score at Day 28 = 2 (Hospitalized, on invasive mechanical ventilation or ECMO), % of patients [9]: (0.0) % | Ordinal Score at Day 28 = 2 (Hospitalized, on invasive mechanical ventilation or ECMO), no. of patients [9]: 0 | Ordinal Score at Day 28 = 3 (Hospitalized, on non-invasive ventilation or high flow oxygen devices), % of patients [9]: (0.0) % | Ordinal Score at Day 28 = 3 (Hospitalized, on non-invasive ventilation or high flow oxygen devices), no. of patients [9]: 0 | Ordinal Score at Day 28 = 4 (Hospitalized, requiring supplemental oxygen), % of patients [9]: (0.0) % | Ordinal Score at Day 28 = 4 (Hospitalized, requiring supplemental oxygen), no. of patients [9]: 0 | Ordinal Score at Day 28 = 7 (Not hospitalized), % of patients [9]: (50.0) % | Ordinal Score at Day 28 = 7 (Not hospitalized), no. of patients [9]: 2 | No. of deaths by day 7 [10]: 0 | No. of deaths by day 28 [10]: 1 | Ordinal Score at Day 7 = 1 (Death), % of patients [10]: (0.0) % | Ordinal Score at Day 7 = 1 (Death), no. of patients [10]: 0 | Ordinal Score at Day 7 = 2 (Hospitalized, on invasive mechanical ventilation or ECMO), % of patients [10]: (61.5) % | Ordinal Score at Day 7 = 2 (Hospitalized, on invasive mechanical ventilation or ECMO), no. of patients [10]: 8 | Ordinal Score at Day 7 = 3 (Hospitalized, on non-invasive ventilation or high flow oxygen devices), % of patients [10]: (23.1) % | Ordinal Score at Day 7 = 3 (Hospitalized, on non-invasive ventilation or high flow oxygen devices), no. of patients [10]: 3 | Ordinal Score at Day 7 = 4 (Hospitalized, requiring supplemental oxygen), % of patients [10]: (0.0) % | Ordinal Score at Day 7 = 4 (Hospitalized, requiring supplemental oxygen), no. of patients [10]: 0 | Ordinal Score at Day 7 = 5 (Hospitalized, not requiring supplemental oxygen), % of patients [10]: (7.7) % | Ordinal Score at Day 7 = 5 (Hospitalized, not requiring supplemental oxygen), no. of patients [10]: 1 | Ordinal Score at Day 7 = 7 (Not hospitalized), % of patients [10]: (7.7) %

Source: patent publication US20240350469A1, “TREATMENT OF LOWER RESPIRATORY TRACT INFECTION WITH TRADIPITANT” (Vanda Pharmaceuticals Inc., priority 2021, published 2024)
